The values below come from PubChem BioAssay (NCI).

Where “and” joins values, the source holds several entries; their conditions need not be identical. Equal entries are not always repeated.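 Where inhibition never reached the appropriate level, the endpoint shown equals the highest concentration tested. Otherwise, values were interpolated linearly from a five-concentration, 48-hour dose response in 96-well plates. GI50 is the concentration that inhibits growth by half. TGI: total growth inhibition.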

The first experiment relates to RXF 393 renal. Nature of the experiment: NCI anticancer screen, dose series, 48 h.
For the compound `CCCOc1ccc2sc(NC(=O)OC)nc2c1`, the GI50 is 2.71 µM and the TGI is over 29.3 µM.
The like results for `OCCCNc1nccc(-c2c(-c3ccc(F)cc3)nn3cc(C(F)(F)F)ccc23)n1` were, in that order, 5.86 µM and 19.1 µM.
The like results for `O=S(=O)(Nc1ccc(F)cc1F)c1ccc(-c2cnc(C3CC3)o2)cc1` were, in that order, 0.595 µM and 7.05 µM.
The like results for `O=C(CSC1CCc2ccccc21)N/N=C/c1ccccc1O` (stereo not given) were, in that order, 5.27 µM and 61.3 µM.
Take `C=C1C(=O)OC2CC(C)C3(O)CCC(=O)C3(C)CC12` (stereo not given): the TGI was determined as 79.7 µM.
Take `O=C1NC(=O)/C(=C\c2ccccc2)C2=C1CCCC2`: the GI50 was 6.52 µM and the TGI is 59.8 µM.
The like results for `O=C(Nc1ccc(F)cc1)c1cc(S(=O)(=O)Nc2nc3ccccc3o2)c(SCc2ccccc2)cc1Cl` were, in that order, 12.8 µM and 30.2 µM.
On to `C#COc1cccc(Nc2c(C#N)cnc3ncc(NC(=O)CCl)cc23)c1`, for which the GI50 was over 62.5 µM and the TGI was over 62.5 µM.
For the compound `CN(CCO)c1ccc(N2Cc3ccccc3OC3=C2C(=O)c2c(O)ccc(O)c2C3=O)cn1`, the GI50 is 0.0954 µM and the TGI was 0.27 µM.
With `CC[C@H]1CN2CCc3cc(OC)c(OC)cc3[C@@H]2C[C@@H]1C[C@H]1NCCc2c1[nH]c1ccc(O)cc21`, the GI50 was 0.0194 µM and 0.0351 µM; the TGI is 0.0629 µM and 0.252 µM and 0.183 µM.
Take `CCCCCOc1ccc(/C=N/Nc2cc(C)nc3ccc(Br)cc23)cc1`: the GI50 is 1.67 µM and the TGI was determined as 3.19 µM.

Another experiment relates to M14 melanoma. Put plainly: NCI anticancer screen, dose series, 48 h.
Consider `CCCOc1ccc2sc(NC(=O)OC)nc2c1`, for which the GI50 was 1.26 µM and the TGI was over 100 µM.
The like results for `OCCCNc1nccc(-c2c(-c3ccc(F)cc3)nn3cc(C(F)(F)F)ccc23)n1` were, in that order, 15.4 µM and over 25 µM.
The like results for `O=S(=O)(Nc1ccc(F)cc1F)c1ccc(-c2cnc(C3CC3)o2)cc1` were, in that order, 0.376 µM and over 59.9 µM.
Take `O=C(CSC1CCc2ccccc21)N/N=C/c1ccccc1O` (stereo not given): the GI50 is 3.7 µM and the TGI came to 63 µM.
As for `C=C1C(=O)OC2CC(C)C3(O)CCC(=O)C3(C)CC12` (stereo not given), the TGI is 55.6 µM.
Take `O=C1NC(=O)/C(=C\c2ccccc2)C2=C1CCCC2`: the GI50 is 3.72 µM and the TGI was found to be 12.8 µM.
The like results for `O=C(Nc1ccc(F)cc1)c1cc(S(=O)(=O)Nc2nc3ccccc3o2)c(SCc2ccccc2)cc1Cl` were, in that order, 16 µM and 30.8 µM.
The like results for `C#COc1cccc(Nc2c(C#N)cnc3ncc(NC(=O)CCl)cc23)c1` were, in that order, over 62.5 µM and over 62.5 µM.
The like results for `CN(CCO)c1ccc(N2Cc3ccccc3OC3=C2C(=O)c2c(O)ccc(O)c2C3=O)cn1` were, in that order, 0.192 µM and 0.409 µM.
`CC[C@H]1CN2CCc3cc(OC)c(OC)cc3[C@@H]2C[C@@H]1C[C@H]1NCCc2c1[nH]c1ccc(O)cc21`: the GI50 was 0.0365 µM and 0.0275 µM; the TGI is 0.162 µM and 0.0729 µM and 0.0478 µM.
Consider `CCCCCOc1ccc(/C=N/Nc2cc(C)nc3ccc(Br)cc23)cc1`, for which the GI50 is 1.88 µM and the TGI is 3.53 µM.

The next experiment concerns A549 NSCLC. Put plainly: NCI anticancer screen, dose series, 48 h.
Take `CCCOc1ccc2sc(NC(=O)OC)nc2c1`: the GI50 is 4.2 µM and the TGI was over 100 µM.
For the compound `OCCCNc1nccc(-c2c(-c3ccc(F)cc3)nn3cc(C(F)(F)F)ccc23)n1`, the GI50 was 17.3 µM and the TGI was over 25 µM.
The like results for `O=S(=O)(Nc1ccc(F)cc1F)c1ccc(-c2cnc(C3CC3)o2)cc1` were, in that order, 0.868 µM and over 100 µM.
The like results for `O=C(CSC1CCc2ccccc21)N/N=C/c1ccccc1O` (stereo not given) were, in that order, 4.81 µM and over 100 µM.
In the case of `C=C1C(=O)OC2CC(C)C3(O)CCC(=O)C3(C)CC12` (stereo not given), the TGI is over 100 µM.
Regarding `O=C1NC(=O)/C(=C\c2ccccc2)C2=C1CCCC2`, the GI50 is 19.7 µM and the TGI was determined as 51.6 µM.
The like results for `O=C(Nc1ccc(F)cc1)c1cc(S(=O)(=O)Nc2nc3ccccc3o2)c(SCc2ccccc2)cc1Cl` were, in that order, 18.3 µM and 38.4 µM.
The like results for `C#COc1cccc(Nc2c(C#N)cnc3ncc(NC(=O)CCl)cc23)c1` were, in that order, 46.9 µM and over 62.5 µM.
The like results for `CN(CCO)c1ccc(N2Cc3ccccc3OC3=C2C(=O)c2c(O)ccc(O)c2C3=O)cn1` were, in that order, 2.08 µM and 4.9 µM.
Consider `CC[C@H]1CN2CCc3cc(OC)c(OC)cc3[C@@H]2C[C@@H]1C[C@H]1NCCc2c1[nH]c1ccc(O)cc21`, for which the GI50 was 0.0192 µM and 0.0336 µM; the TGI is 0.0627 µM and 0.121 µM and 0.321 µM.
As to `CCCCCOc1ccc(/C=N/Nc2cc(C)nc3ccc(Br)cc23)cc1`, the GI50 was 1.9 µM and the TGI was 3.69 µM.

A further experiment relates to DU-145 prostate. Put plainly: NCI anticancer screen, dose series, 48 h.
Regarding `CCCOc1ccc2sc(NC(=O)OC)nc2c1`, the GI50 was 4.05 µM and the TGI was over 100 µM.
The like results for `OCCCNc1nccc(-c2c(-c3ccc(F)cc3)nn3cc(C(F)(F)F)ccc23)n1` were, in that order, 12.9 µM and over 25 µM.
The like results for `O=S(=O)(Nc1ccc(F)cc1F)c1ccc(-c2cnc(C3CC3)o2)cc1` were, in that order, 2.09 µM and over 100 µM.
The like results for `O=C(CSC1CCc2ccccc21)N/N=C/c1ccccc1O` (stereo not given) were, in that order, 6.09 µM and over 100 µM.
Consider `C=C1C(=O)OC2CC(C)C3(O)CCC(=O)C3(C)CC12` (stereo not given), for which the TGI is over 100 µM.
For the compound `O=C1NC(=O)/C(=C\c2ccccc2)C2=C1CCCC2`, the GI50 is 10.8 µM and the TGI was determined as 22.9 µM.
The like results for `O=C(Nc1ccc(F)cc1)c1cc(S(=O)(=O)Nc2nc3ccccc3o2)c(SCc2ccccc2)cc1Cl` were, in that order, 19.2 µM and 35.4 µM.
Turning to `C#COc1cccc(Nc2c(C#N)cnc3ncc(NC(=O)CCl)cc23)c1`, the GI50 is 42.1 µM and the TGI was over 62.5 µM.
The like results for `CN(CCO)c1ccc(N2Cc3ccccc3OC3=C2C(=O)c2c(O)ccc(O)c2C3=O)cn1` were, in that order, 0.174 µM and 0.323 µM.
The like results for `CC[C@H]1CN2CCc3cc(OC)c(OC)cc3[C@@H]2C[C@@H]1C[C@H]1NCCc2c1[nH]c1ccc(O)cc21` were, in that order, 0.0249 µM and 0.0584 µM.
The like results for `CCCCCOc1ccc(/C=N/Nc2cc(C)nc3ccc(Br)cc23)cc1` were, in that order, 1.81 µM and 3.25 µM.

A further experiment has as its system A498 renal. Nature of the experiment: NCI anticancer screen, dose series, 48 h.
Take `CCCOc1ccc2sc(NC(=O)OC)nc2c1`: the GI50 was 2.34 µM and the TGI is over 27.1 µM.
The like results for `OCCCNc1nccc(-c2c(-c3ccc(F)cc3)nn3cc(C(F)(F)F)ccc23)n1` were, in that order, 12.8 µM and over 25 µM.
The like results for `O=S(=O)(Nc1ccc(F)cc1F)c1ccc(-c2cnc(C3CC3)o2)cc1` were, in that order, 0.223 µM and 2.08 µM.
The like results for `O=C(CSC1CCc2ccccc21)N/N=C/c1ccccc1O` (stereo not given) were, in that order, 14.7 µM and 44 µM.
For the compound `C=C1C(=O)OC2CC(C)C3(O)CCC(=O)C3(C)CC12` (stereo not given), the TGI amounted to 66.2 µM.
Turning to `O=C1NC(=O)/C(=C\c2ccccc2)C2=C1CCCC2`, the GI50 was 12.9 µM and the TGI came to 26.1 µM.
Take `O=C(Nc1ccc(F)cc1)c1cc(S(=O)(=O)Nc2nc3ccccc3o2)c(SCc2ccccc2)cc1Cl`: the GI50 is 17.2 µM and the TGI was 32.5 µM.
The like results for `C#COc1cccc(Nc2c(C#N)cnc3ncc(NC(=O)CCl)cc23)c1` were, in that order, 45.8 µM and over 62.5 µM.
Consider `CN(CCO)c1ccc(N2Cc3ccccc3OC3=C2C(=O)c2c(O)ccc(O)c2C3=O)cn1`, for which the GI50 was 2.17 µM and the TGI came out at 5.66 µM.
For `CC[C@H]1CN2CCc3cc(OC)c(OC)cc3[C@@H]2C[C@@H]1C[C@H]1NCCc2c1[nH]c1ccc(O)cc21`, the GI50 was 0.191 µM; the TGI was 0.136 µM and 0.507 µM and 0.223 µM.
As to `CCCCCOc1ccc(/C=N/Nc2cc(C)nc3ccc(Br)cc23)cc1`, the GI50 is 1.83 µM and the TGI was 3.32 µM.
